Legend:
NPY = assay: In vivo NPY-antagonism, NPY-induced blood pressure effects in pithed rats; conditions: Rattus norvegicus, iv, 1 min, NPY 10 μg/kg i.v., diastolic blood pressure, read-out: pIC50 (in vivo NPY-antagonism) (converted)
Protocol: After intubation of the trachea the animals are pithed by introducing a blunt needle through the eye into the spinal bone marrow channel. The animals are ventilated with oxygen-rich ambient air using a respiratory pump (20 strokes/minute). A cannula is inserted in the left carotid artery and the arterial blood pressure is measured using a pressure gauge (Braun Melsungen Combitrans) connected to a recording device. For injection purposes a catheter is placed in the left jugular vein through which heparin is administered (200 IU/kg, i.v.). After the blood pressure has been stabilised, the animals are given 2 bolus injections of NPY (10 μg/kg, i.v.) at intervals of 15 minutes. The average increase in diastolic blood pressure is taken as the reference value (=100%). The test substances are injected in increasing doses (4 to 6 doses) at intervals of 15 minutes. One minute after administration of the test substance, NPY is administered.
The antagonistic effect of the test substances is determined by plotting the percentage inhibition of the NPY-induced blood pressure effects against the logarithm of the concentration of active substance.

humanY2 = biological target: T1, humanY2 (Homo sapiens, UniProt P49146); assay: Receptor binding, SMS-KAN cells (Y2); conditions: read-out: Affinity IC50, humanY2/SMS-KAN
T1 construct: endoge- nously expressing Y1 and Y2 receptors; endogenous in cells; host or cells: SMS-KAN (neuroblastoma) cells
T1 sequence (P49146 1-381): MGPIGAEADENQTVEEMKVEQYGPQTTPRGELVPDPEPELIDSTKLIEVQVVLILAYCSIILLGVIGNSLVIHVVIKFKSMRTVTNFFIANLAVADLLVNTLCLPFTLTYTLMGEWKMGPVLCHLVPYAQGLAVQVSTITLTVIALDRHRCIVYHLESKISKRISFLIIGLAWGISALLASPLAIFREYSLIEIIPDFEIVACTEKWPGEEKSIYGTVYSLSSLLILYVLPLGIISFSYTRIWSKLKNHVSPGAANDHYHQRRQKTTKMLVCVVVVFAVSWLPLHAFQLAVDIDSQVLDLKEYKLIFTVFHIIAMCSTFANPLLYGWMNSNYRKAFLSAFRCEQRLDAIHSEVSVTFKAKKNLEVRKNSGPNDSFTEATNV
Protocol: SMS-KAN (neuroblastoma) cells: Cells were grown and receptor binding assay performed analogously as described hereinbefore under A and by Wieland et al. in Peptides 16, 1389-1394 (1995).

human Y5 receptor = biological target: T2, human Y5 receptor (Homo sapiens, UniProt Q15761); assay: Receptor binding, HEK 293 cells stably transfected with human Y5 receptor; conditions: read-out: Affinity IC50, humanY5/293
T2 construct: expressed in transfected cells; host or cells: HEK 293
T2 sequence (Q15761 1-445): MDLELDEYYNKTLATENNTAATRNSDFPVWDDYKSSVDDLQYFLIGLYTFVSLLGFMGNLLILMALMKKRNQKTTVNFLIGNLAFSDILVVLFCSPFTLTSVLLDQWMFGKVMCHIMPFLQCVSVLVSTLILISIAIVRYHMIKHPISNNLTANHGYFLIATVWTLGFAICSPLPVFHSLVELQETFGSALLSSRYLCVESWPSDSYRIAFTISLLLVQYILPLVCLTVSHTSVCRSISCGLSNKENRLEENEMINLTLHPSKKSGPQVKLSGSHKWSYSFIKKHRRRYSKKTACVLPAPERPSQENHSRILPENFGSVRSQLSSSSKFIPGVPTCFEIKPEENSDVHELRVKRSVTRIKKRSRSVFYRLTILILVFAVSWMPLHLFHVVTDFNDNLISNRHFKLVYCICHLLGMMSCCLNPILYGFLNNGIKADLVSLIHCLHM
Protocol: HEK 293 cells stably transfected with human Y5 receptor:
Centrifugated cells were cultivated as described for BHK/Y1 cells except that a concentration of 0.7 mg/ml G-418 was used, no hygromycin added and no IPTG induction was necessary. The incubation buffer, cell cultivation and receptor binding was performed as described. Final concentration was 1.5×10^6 cells/ml and centrifugation stopped as described for Y1/BHK cells.

Structure (SMILES): N=C(N)NCCC[C@@H](NC(=O)C(c1ccccc1)c1ccccc1)C(=O)NCc1ccc(CNC(N)=O)cc1 [Compound C]
- ED50 (NPY): 0.00776 µmol/kg
- IC50 (humanY2): > 10 µM
- IC50 (human Y5 receptor): > 10 µM
